Data reported in ChEMBL document CHEMBL1136175, “Synthesis and antimycobacterial activity of capuramycin analogues. Part 2: acylated derivatives of capuramycin-related compounds” (Bioorg Med Chem Lett, 2003).
≈ marks a conversion by molar mass, not a printed value.

Key:
[1] = molecular target: T1, Phospho-N-acetylmuramoyl-pentapeptide-transferase (Escherichia coli K-12, UniProt P0A6W3); test: Inhibitory concentration required against Translocase I
T1 sequence (P0A6W3 whole entry): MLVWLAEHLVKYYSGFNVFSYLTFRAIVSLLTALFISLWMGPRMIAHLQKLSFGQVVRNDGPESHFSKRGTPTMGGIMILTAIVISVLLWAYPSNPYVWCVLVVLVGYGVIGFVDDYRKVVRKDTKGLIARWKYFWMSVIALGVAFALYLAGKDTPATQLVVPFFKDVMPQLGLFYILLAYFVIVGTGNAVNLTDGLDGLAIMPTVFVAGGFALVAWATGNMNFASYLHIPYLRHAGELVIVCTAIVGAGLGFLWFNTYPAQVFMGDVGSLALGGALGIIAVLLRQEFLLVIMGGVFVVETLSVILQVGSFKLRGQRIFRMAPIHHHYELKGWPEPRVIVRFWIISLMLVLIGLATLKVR

[2] = tested on: Mycolicibacterium smegmatis; test: Antimycobacterial activity was determined against Mycobacterium smegmatis SANK75075; assay type: functional
[3] = tested on: Mycobacterium avium; test: Antimycobacterial activity against Mycobacterium avium NIHJ1605; assay type: functional
[4] = tested on: Mycobacterium kansasii; test: Antimycobacterial activity against Mycobacterium kansasii ATCC 12478; assay type: functional
[5] = tested on: Mycobacterium intracellulare; test: Antimycobacterial activity against Mycobacterium intracellular ATCC 1954 E-3; assay type: functional

Row | Structure (SMILES) | IC50 [1] [nM] | MIC [2] [µg/mL] | MIC [3] [µg/mL] | MIC [4] [µg/mL] | MIC [5] [µg/mL]
1 | CCCCCCCCC(=O)O[C@@H]1[C@H](OC)[C@@H]([C@@H](O[C@H]2OC(C(=O)N[C@H]3CCC[C@@H](C)NC3=O)=C[C@H](O)[C@@H]2O)C(N)=O)O[C@H]1n1ccc(=O)[nH]c1=O | 235 | 25 (≈ 34.5 µM) |  |  | 
2 | CCCCCCCCCCCCCCCCCCCCCC(=O)O[C@@H]1[C@H](OC)[C@@H]([C@@H](O[C@H]2OC(C(=O)N[C@H]3CCCCNC3=O)=C[C@H](O)[C@@H]2O)C(N)=O)O[C@H]1n1ccc(=O)[nH]c1=O |  | 100 (≈ 112 µM) |  |  | 
3 | CCCCCCCCC(=O)O[C@@H]1[C@H](OC)[C@@H]([C@@H](O[C@H]2OC(C(=O)Nc3ccccc3)=C[C@H](O)[C@@H]2O)C(N)=O)O[C@H]1n1ccc(=O)[nH]c1=O | 1040 | 12.5 (≈ 18.5 µM) | 0.25 (≈ 0.371 µM) | 1 (≈ 1.48 µM) | 1 (≈ 1.48 µM)
4 | CCCCCCCO[C@@H]1[C@H](OC)[C@@H]([C@@H](O[C@H]2OC(C(=O)N[C@H]3CCC[C@@H](C)NC3=O)=C[C@H](O)[C@@H]2O)C(N)=O)O[C@H]1n1ccc(=O)[nH]c1=O | 80.7 | 100 (≈ 147 µM) | 32 (≈ 46.9 µM) | 32 (≈ 46.9 µM) | 4 (≈ 5.87 µM)
5 | CCCCCCCCCCCCCCCCC(=O)O[C@@H]1[C@H](OC)[C@@H]([C@@H](O[C@H]2OC(C(=O)N[C@H]3CCC[C@@H](C)NC3=O)=C[C@H](O)[C@@H]2O)C(N)=O)O[C@H]1n1ccc(=O)[nH]c1=O |  | > 100 | 2 (≈ 2.39 µM) | 4 (≈ 4.78 µM) | 8 (≈ 9.57 µM)
6 | CCCCCCCCCCCCCC(=O)O[C@@H]1[C@H](OC)[C@@H]([C@@H](O[C@H]2OC(C(=O)N[C@H]3CCCCNC3=O)=C[C@H](O)[C@@H]2O)C(N)=O)O[C@H]1n1ccc(=O)[nH]c1=O |  | 1.56 (≈ 2 µM) | 2 (≈ 2.56 µM) | 4 (≈ 5.13 µM) | 1 (≈ 1.28 µM)
7 | CCCCCCCCCCCCCCCCCC(=O)O[C@@H]1[C@H](OC)[C@@H]([C@@H](O[C@H]2OC(C(=O)N[C@H]3CCCCNC3=O)=C[C@H](O)[C@@H]2O)C(N)=O)O[C@H]1n1ccc(=O)[nH]c1=O |  | 50 (≈ 59.8 µM) |  |  | 
8 | CC/C=C\C/C=C\C/C=C\CCCCCCCC(=O)O[C@@H]1[C@H](OC)[C@@H]([C@@H](O[C@H]2OC(C(=O)N[C@H]3CCC[C@@H](C)NC3=O)=C[C@H](O)[C@@H]2O)C(N)=O)O[C@H]1n1ccc(=O)[nH]c1=O |  | 3.13 (≈ 3.71 µM) |  |  | 
9 | CCCCCCCCCCCCCCCCCCCC(=O)O[C@@H]1[C@H](OC)[C@@H]([C@@H](O[C@H]2OC(C(=O)N[C@H]3CCCCNC3=O)=C[C@H](O)[C@@H]2O)C(N)=O)O[C@H]1n1ccc(=O)[nH]c1=O |  | 50 (≈ 57.9 µM) |  |  | 
10 | CO[C@H]1[C@@H](OC(=O)C(C)c2ccc([N+](=O)[O-])cc2)[C@H](n2ccc(=O)[nH]c2=O)O[C@@H]1[C@@H](O[C@H]1OC(C(=O)N[C@H]2CCC[C@@H](C)NC2=O)=C[C@H](O)[C@@H]1O)C(N)=O (some centres not stated) |  | 25 (≈ 32.9 µM) |  |  | 
11 | CCCCCCCCCCCCCCCC(=O)O[C@@H]1[C@H](OC)[C@@H]([C@@H](O[C@H]2OC(C(=O)N[C@H]3CCCCNC3=O)=C[C@H](O)[C@@H]2O)C(N)=O)O[C@H]1n1ccc(=O)[nH]c1=O |  | 1.56 (≈ 1.93 µM) | 1 (≈ 1.24 µM) | 4 (≈ 4.95 µM) | 2 (≈ 2.48 µM)
12 | CCCCCCCCCCCC(=O)O[C@@H]1[C@H](OC)[C@@H]([C@@H](O[C@H]2OC(C(=O)N[C@H]3CCCCNC3=O)=C[C@H](O)[C@@H]2O)C(N)=O)O[C@H]1n1ccc(=O)[nH]c1=O |  | 3.13 (≈ 4.16 µM) | < 0.063 | 0.125 (≈ 0.166 µM) | 0.125 (≈ 0.166 µM)
13 | CCCCC/C=C\C/C=C\CCCCCCCC(=O)O[C@@H]1[C@H](OC)[C@@H]([C@@H](O[C@H]2OC(C(=O)N[C@H]3CCC[C@@H](C)NC3=O)=C[C@H](O)[C@@H]2O)C(N)=O)O[C@H]1n1ccc(=O)[nH]c1=O |  | 6.25 (≈ 7.39 µM) |  |  | 
14 | CCCCCCCC/C=C\CCCCCCCCCCCC(=O)O[C@@H]1[C@H](OC)[C@@H]([C@@H](O[C@H]2OC(C(=O)N[C@H]3CCC[C@@H](C)NC3=O)=C[C@H](O)[C@@H]2O)C(N)=O)O[C@H]1n1ccc(=O)[nH]c1=O |  | > 100 |  |  | 
15 | CCCCCCCCCCCCCCCCCCCCCC(=O)O[C@@H]1[C@H](OC)[C@@H]([C@@H](O[C@H]2OC(C(=O)N[C@H]3CCC[C@@H](C)NC3=O)=C[C@H](O)[C@@H]2O)C(N)=O)O[C@H]1n1ccc(=O)[nH]c1=O | 16600 | > 100 |  |  | 
16 | CCCCCCCCCOC(=O)O[C@@H]1[C@H](OC)[C@@H]([C@@H](O[C@H]2OC(C(=O)N[C@H]3CCC[C@@H](C)NC3=O)=C[C@H](O)[C@@H]2O)C(N)=O)O[C@H]1n1ccc(=O)[nH]c1=O | 1860 | 12.5 (≈ 16.6 µM) |  |  | 

Row | Structure (SMILES) | IC50 [1] [nM] | MIC [2] [µg/mL] | MIC [3] [µg/mL] | MIC [4] [µg/mL] | MIC [5] [µg/mL]
17 | CCCCCCOC(=O)O[C@@H]1[C@H](OC)[C@@H]([C@@H](O[C@H]2OC(C(=O)N[C@H]3CCC[C@@H](C)NC3=O)=C[C@H](O)[C@@H]2O)C(N)=O)O[C@H]1n1ccc(=O)[nH]c1=O | 183 | 50 (≈ 70.3 µM) |  |  | 
18 | CO[C@H]1[C@@H](OC(=O)c2ccccc2)[C@H](n2ccc(=O)[nH]c2=O)O[C@@H]1[C@@H](O[C@H]1OC(C(=O)N[C@H]2CCC[C@@H](C)NC2=O)=C[C@H](O)[C@@H]1O)C(N)=O |  | 25 (≈ 36.4 µM) |  |  | 
19 | CO[C@H]1[C@@H](OC(=O)CC(c2ccccc2)c2ccccc2)[C@H](n2ccc(=O)[nH]c2=O)O[C@@H]1[C@@H](O[C@H]1OC(C(=O)N[C@H]2CCC[C@@H](C)NC2=O)=C[C@H](O)[C@@H]1O)C(N)=O |  | 25 (≈ 31.6 µM) |  |  | 
20 | CCCCCCCCCCCCCCC(=O)O[C@@H]1[C@H](OC)[C@@H]([C@@H](O[C@H]2OC(C(=O)N[C@H]3CCCCNC3=O)=C[C@H](O)[C@@H]2O)C(N)=O)O[C@H]1n1ccc(=O)[nH]c1=O |  | 3.13 (≈ 3.94 µM) | 2 (≈ 2.52 µM) | 4 (≈ 5.04 µM) | 1 (≈ 1.26 µM)
21 | CCCCCCCCCCCCCCCCC(=O)O[C@@H]1[C@H](OC)[C@@H]([C@@H](O[C@H]2OC(C(=O)N[C@H]3CCCCNC3=O)=C[C@H](O)[C@@H]2O)C(N)=O)O[C@H]1n1ccc(=O)[nH]c1=O |  | 50 (≈ 60.8 µM) |  |  | 
22 | CO[C@H]1[C@@H](O)[C@H](n2ccc(=O)[nH]c2=O)O[C@@H]1[C@@H](O[C@H]1OC(C(=O)N[C@H]2CCC[C@@H](C)NC2=O)=C[C@H](O)[C@@H]1O)C(N)=O |  | 6.25 (≈ 10.7 µM) | 8 (≈ 13.7 µM) | 16 (≈ 27.4 µM) | 4 (≈ 6.85 µM)
23 | CCCCCCCCCCCCCCCCCC(=O)O[C@@H]1[C@H](OC)[C@@H]([C@@H](O[C@H]2OC(C(=O)N[C@H]3CCC[C@@H](C)NC3=O)=C[C@H](O)[C@@H]2O)C(N)=O)O[C@H]1n1ccc(=O)[nH]c1=O | 9410 | > 100 |  |  | 
24 | CCCCCCCCCC(=O)O[C@@H]1[C@H](OC)[C@@H]([C@@H](O[C@H]2OC(C(=O)N[C@H]3CCC[C@@H](C)NC3=O)=C[C@H](O)[C@@H]2O)C(N)=O)O[C@H]1n1ccc(=O)[nH]c1=O |  | 6.25 (≈ 8.47 µM) | < 0.063 | < 0.063 | < 0.063
25 | CCCCCCCCCCC(C)C(=O)O[C@@H]1[C@H](OC)[C@@H]([C@@H](O[C@H]2OC(C(=O)N[C@H]3CCC[C@@H](C)NC3=O)=C[C@H](O)[C@@H]2O)C(N)=O)O[C@H]1n1ccc(=O)[nH]c1=O (some centres not stated) | 769 | 25 (≈ 32.1 µM) |  |  | 
26 | CCCCCCCCCCC(C)(C)C(=O)O[C@@H]1[C@H](OC)[C@@H]([C@@H](O[C@H]2OC(C(=O)N[C@H]3CCC[C@@H](C)NC3=O)=C[C@H](O)[C@@H]2O)C(N)=O)O[C@H]1n1ccc(=O)[nH]c1=O | 1260 | 6.25 (≈ 7.87 µM) |  |  | 
27 | CCCCCCCC/C=C\CCCCCCCC(=O)O[C@@H]1[C@H](OC)[C@@H]([C@@H](O[C@H]2OC(C(=O)N[C@H]3CCC[C@@H](C)NC3=O)=C[C@H](O)[C@@H]2O)C(N)=O)O[C@H]1n1ccc(=O)[nH]c1=O |  | 6.25 (≈ 7.37 µM) |  |  | 
28 | CCCCCCCC/C=C\CCCCCCCCCC(=O)O[C@@H]1[C@H](OC)[C@@H]([C@@H](O[C@H]2OC(C(=O)N[C@H]3CCC[C@@H](C)NC3=O)=C[C@H](O)[C@@H]2O)C(N)=O)O[C@H]1n1ccc(=O)[nH]c1=O |  | 50 (≈ 57.1 µM) |  |  | 
29 | CCCCCCCCCCCCCCCCCCCC(=O)O[C@@H]1[C@H](OC)[C@@H]([C@@H](O[C@H]2OC(C(=O)N[C@H]3CCC[C@@H](C)NC3=O)=C[C@H](O)[C@@H]2O)C(N)=O)O[C@H]1n1ccc(=O)[nH]c1=O | 34200 | > 100 |  |  | 
30 | NNC(=O)c1ccncc1 [ISONIAZID] |  |  | 1 (≈ 7.29 µM) | 2 (≈ 14.6 µM) | 8 (≈ 58.3 µM)
31 | CO[C@H]1/C=C/O[C@@]2(C)Oc3c(C)c(O)c4c(O)c(c(/C=N/N5CCN(C)CC5)c(O)c4c3C2=O)NC(=O)/C(C)=C\C=C\[C@H](C)[C@H](O)[C@@H](C)[C@@H](O)[C@@H](C)[C@H](OC(C)=O)[C@@H]1C [RIFAMPIN] |  |  | 0.125 (≈ 0.152 µM) | 0.25 (≈ 0.304 µM) | 0.125 (≈ 0.152 µM)
